Measured values: ChEMBL document CHEMBL3124787, “Discovery of novel bis-oxazolidinone compounds as potential potent and selective antitubercular agents” (Bioorg Med Chem Lett, 2014)
Values after ≈ are worked out from the molar mass of the structure shown.

Key:
Staphylococcus aureus [1] = assay: Antibacterial activity against methicillin-susceptible Staphylococcus aureus ATCC 29213 assessed as growth inhibition after 18 hrs by broth microdilution method; type: functional; conditions: ATCC 29213, 18 h
Escherichia coli = assay: Antibacterial activity against Escherichia coli ATCC 25922 assessed as growth inhibition after 18 hrs by broth microdilution method; type: functional; conditions: ATCC 25922, 18 h
[2] = Aqueous solubility of the compound by HPLC analysis; type: physicochemical
[3] = Lipophilicity, log P of the compound by HPLC analysis; type: physicochemical
[4] = Selectivity index, ratio of IC50 for African green monkey Vero cells to MIC for Mycobacterium tuberculosis H37RV ATCC 27294; type: toxicity, cell-based; conditions: read-out: Selectivity Index
Staphylococcus aureus [5] = assay: Antibacterial activity against methicillin-resistant Staphylococcus aureus ATCC 33591 assessed as growth inhibition after 18 hrs by broth microdilution method; type: functional; conditions: ATCC 33591, 18 h
[6] = system: Mycolicibacterium smegmatis; assay: Antibacterial activity against Mycobacterium smegmatis assessed as growth inhibition after 18 hrs by broth microdilution method; type: functional
Vero = assay: Cytotoxicity against African green monkey Vero cells after 48 hrs by MTT assay; type: cell-based; conditions: Chlorocebus sabaeus
Staphylococcus aureus [7] = assay: Antibacterial activity against methicillin-susceptible Staphylococcus aureus ATCC 25923 assessed as growth inhibition after 18 hrs by broth microdilution method; type: functional; conditions: ATCC 25923, 18 h
Staphylococcus aureus [8] = assay: Antibacterial activity against methicillin-susceptible Staphylococcus aureus CMCC 26003 assessed as growth inhibition after 18 hrs by broth microdilution method; type: functional; conditions: CMCC 26003, 18 h
[9] = system: Mycobacterium tuberculosis; assay: Antitubercular activity against Mycobacterium tuberculosis H37RV ATCC 27294 assessed as growth inhibition after 3 to 11 days by microdilution method; type: functional
Staphylococcus aureus [10] = assay: Antibacterial activity against methicillin-resistant Staphylococcus aureus ATCC 43300 assessed as growth inhibition after 18 hrs by broth microdilution method; type: functional; conditions: ATCC 43300, 18 h
Staphylococcus aureus [11] = assay: Antibacterial activity against methicillin-susceptible Staphylococcus aureus ATCC 6538 assessed as growth inhibition after 18 hrs by broth microdilution method; type: functional; conditions: ATCC 6538, 18 h
Pseudomonas aeruginosa = assay: Antibacterial activity against Pseudomonas aeruginosa ATCC 27853 assessed as growth inhibition after 18 hrs by broth microdilution method; type: functional; conditions: ATCC 27853, 18 h

Structure (SMILES)	MIC99 (Staphylococcus aureus [1]) [µg/mL]	MIC99 (Escherichia coli) [µg/mL]	solubility [2] [µM]	logP [3]	selectivity ratio [4]	MIC99 (Staphylococcus aureus [5]) [µg/mL]	MIC99 [6] [µg/mL]	IC50 (Vero) [µg/mL]	MIC99 (Staphylococcus aureus [7]) [µg/mL]	MIC99 (Staphylococcus aureus [8]) [µg/mL]	MIC [9] [µg/mL]	MIC99 (Staphylococcus aureus [10]) [µg/mL]	MIC99 (Staphylococcus aureus [11]) [µg/mL]	MIC99 (Pseudomonas aeruginosa) [µg/mL]
COc1ccc(N2C[C@H](COc3ccc(N4C[C@H](CNC(C)=O)OC4=O)cc3F)OC2=O)cc1	8 (≈ 16.9 µM)	> 32	211 (≈ 99.9 µg/mL)	1.73	428	8 (≈ 16.9 µM)	> 64	107 (≈ 226 µM)	8 (≈ 16.9 µM)	4 (≈ 8.45 µM)	0.25 (≈ 0.528 µM)	4 (≈ 8.45 µM)	4 (≈ 8.45 µM)	> 32
CC(=O)NC[C@H]1CN(c2ccc(OC[C@@H]3CN(c4ccccc4)C(=O)O3)c(F)c2)C(=O)O1	16 (≈ 36.1 µM)	> 32	14 (≈ 6.21 µg/mL)	1.78	> 40000	16 (≈ 36.1 µM)	> 64	> 5000	16 (≈ 36.1 µM)	16 (≈ 36.1 µM)	0.125 (≈ 0.282 µM)	16 (≈ 36.1 µM)	8 (≈ 18 µM)	> 32
